Laboratory results reported in EP1714646A1, “Pharmaceutical composition containing bakuchiol for treating osteoporosis in women” (Sinphar Pharmaceutical Co., Ltd., priority 2005, dated 2006).

Key:
[1] = system: T47D; assay: Cytotoxicity assay (CCK-8), T47D; assay type: cell-based, human; details: T47D (estrogen receptor positive), 48 hours incubation
Text: (§1) Materials: DMEM (medium), RPMI (medium), L-glutamine, penicillin, streptomycin and FBS (fetal bovine serum) were obtained from Gibco (NY, USA). Culture plasticware was purchased from Coming (MA, USA). […] All other chemicals used were of reagent grade and were purchased from Sigma or E. Merck (Germany).
(§2) Cell lines and cell cultures: The human breast cancer cell lines T47D and MDA-MB231 were obtained from American Type Culture Collection (ATCC). Of both cancer cells, T47D is estrogen receptor positive, and MDA-MB231 is estrogen receptor negative. Cells were cultured at 37°C in RPMI medium containing 10% charcoal-dextran stripped fetal bovine serum for T47D cells and in DMEM medium containing 10% charcoal-dextran stripped fetal bovine serum for MDA-MB231 cells with 5% CO2. The cell proliferation was determined by counting the viable cells with trypan blue exclusion.
(§3) Cytotoxicity assay: Dispense 198 µl of cell suspension (20,000 cells for T47D per well and 10,000 cell for MDA-MB231 per well) in a 96-well plate and pre-incubate the plate for 24 hours in an incubator at 37°C with humidified 5% CO2. […] After plate was incubated for 48 hours in the incubator, media were aspirated of and new media (100 µl) were added and incubated for more 1 hour. […] Measure the absorbance at 450 nm using a ELISA reader. […]

[2] = system: MDA-MB231; assay: Cytotoxicity assay (CCK-8), MDA-MB231; assay type: cell-based, human; details: MDA-MB231 (estrogen receptor negative), 48 hours incubation
Text: as §1, §2, §3

[3] = system: osteoporosis caused by estrogen deficiency; assay: Ovariectomized rat osteoporosis model: bone histomorphometry and apparent bone density; assay type: in vivo, female Wistar rats
Text: The purpose of this example is to show the potency of bakuchiol in treating osteoporosis, wherein ovary of a female rat is removed to stimulate osteoporosis caused by estrogen deficiency.
The female Wistar rats of 16 weeks old (unless specified in the other experiment description) were obtained from the stock reared by the Animal breeding center, National Scientific Council in Taipei. These rats were grouped by weights matched in order to distribute the physiological response variation from rats evenly into each group. These rats were grouping as follows: • Baseline group fed with no drug added food (n=8) • Sham operation group fed with no drug added food (Sham) (n=10) • Ovariectomy operation group fed with no drug added food (OVX) (n=8) • Ovariectomy operation group fed with Drug A (5 mg/kg) added food (OVX+A) (n=9) • Ovariectomy operation group fed with Drug B (15 mg/kg) added food (OVX+B) (n=9)
Ovariectomy (removal of ovaries) operation: Ovariectomy was induced using a protocol similar to that described by Wronski et al (Wronski et al, Endocrinology, 123 (2), 681-686 ([…]))
During the experiments, the rats were housed in hanging grid cages in groups of two at 21°C with a 12 hours dark cycle. Food (Rat-mouse diet III, adequate in 1 % of calcium content and 1.2 % of phosphate content, Purina, USA) was administered by paired feeding between the experimental and control groups. Pair-feeding was carried out by calculating the average amount of food intake in the Sham group. So give the same amount of food to the OVX , OVX+A (5 mg/kg), OVX+B (15 mg/kg) group animals the following day. These animals were fed with a period of two months except for the baseline group which were killed on the very day of doing ovariectomy or sham operation. Rats of OVX+A and OVX+B groups were fed with the usual food chuck but added certain amount of compound A and B in it respectively. Water was given ad libitum to all rats.
The test drug was weighted according to dose of 5 mg/kg and 15 mg/kg, and added into the ususal food chuck powder and mixed with 10% starch paste. After fully mixed, these chuck powder were made into mass manually and dried by air flow oven. The food with added drug to rats was performed by single blind method.
These labeling and bone histomorphometry assessment were done based on standard procedure in bone research (Lin et al, Calcif. Tissue Int., 67, 373-377 (2000)). […] Seven µm thick unstained sections were prepared for fluorescent microscopy and assessed with program Osteomeasure (3.0 version, Atlanta, USA). […]
The whole tibia and femur were stripped off attached muscles and ligaments after sacrifice. […] The weight of bone measured in the air was marked as W-air. […] The apparent bone density was calculated as [W-air/(W-air minus W-water)] […]

C=C[C@@](C)(/C=C/c1ccc(O)cc1)CCC=C(C)C [Bakuchiol, bakuchiol]
50% inhibition of cell growth concentrations of test compounds (IC50) [1]: 5.00 μg/cc | 50% inhibition of cell growth concentrations of test compounds (IC50) [2]: 0.62 μg/cc | bone volume of proximal tibia ([3]; OVX+A (5 mg/kg) and OVX+B (15 mg/kg) in food, two months, vs OVX group, p < 0.001, Figure 1): increase | erosion surface (ES/BS,%) of proximal tibia ([3]; OVX+A (5 mg/kg) and OVX+B (15 mg/kg) in food, two months, vs OVX group, p < 0.001, Figure 3): inhibition of bone erosion | bone apparent density of tibia ([3]; OVX+A (5 mg/kg) and OVX+B (15 mg/kg) in food, two months, vs OVX group, p < 0.05, Figure 2): increase | therapeutic effect on osteoporosis ([3]; ovariectomized female rat, low dose (5 mg/kg)): possess a therapeutic effect on osteoporosis by inhibiting the bone resorption
